Experimental data: patent US7754759B2, “Arylsulfonyl chromans as 5-HT6 inhibitors” (Roche Palo Alto LLC, priority 2005, dated 2010)
Structures can show the parent of a compound that is named as a salt.

Key:
[1] = molecular target: T1, recombinant human 5-HT6 receptor (Homo sapiens, UniProt P50406); assay: Radioligand binding, [3H]LSD competition at 5-HT6 receptor; conditions: membranes of HEK293 cells expressing recombinant human 5-HT6 receptor, 37° C., read-out: pKi for the 5-HT6 receptor (converted)
T1 construct: expressed in transfected cells
Description: (§1) The binding activity of compounds of this invention in vitro was determined as follows. Duplicate determinations of 5-HT6 ligand affinity were made by competing for binding of [^3H]LSD in cell membranes derived from HEK293 cells stably expressing recombinant human 5-HT6 receptor. Duplicate determinations of 5-HT2A ligand affinity were made by competing for binding of [^3H]Ketanserin (3-(2-(4-(4-fluorobenzoyl)piperidinol)ethyl)-2,4(1H,3H)-quinazolinedione) in cell membranes derived from CHO-K1 cells stably expressing recombinant human 5-HT2A receptor. Membranes were prepared from HEK 293 cell lines by the method described by Monsma et al., Molecular Pharmacology, Vol. 43 pp. 320-327 (1993), and from CHO-K1 cell lines as described by Bonhaus et al., Br J Pharmacol. June; 115(4):622-8 (1995).
(§2) For estimation of affinity at the 5-HT6 receptor, all determinations were made in assay buffer containing 50 mM Tris-HCl, 10 mM MgSO4, 0.5 mM EDTA, 1 mM ascorbic acid, pH 7.4 at 37° C., in a 250 microliter reaction volume. […]
(§3) Assay tubes containing [^3H] […] LSD or [^3H]Ketanserin were determined as radioactive counts per minute using Packard TopCount.
(§4) Displacement of [^3H]LSD or [^3H]Ketanserin from the binding sites was quantified by fitting concentration-binding data to a 4-parameter logistic equation: […]

[2] = molecular target: T2, recombinant human 5-HT2A receptor (Homo sapiens, UniProt P28223); assay: Radioligand binding, [3H]Ketanserin competition at 5-HT2A receptor; conditions: membranes of CHO-K1 cells expressing recombinant human 5-HT2A receptor, 32° C., read-out: pKi for the 5-HT2A receptor (converted)
T2 construct: expressed in transfected cells
Description: as §1, §2, §3, §4

T1 sequence (P50406 whole entry): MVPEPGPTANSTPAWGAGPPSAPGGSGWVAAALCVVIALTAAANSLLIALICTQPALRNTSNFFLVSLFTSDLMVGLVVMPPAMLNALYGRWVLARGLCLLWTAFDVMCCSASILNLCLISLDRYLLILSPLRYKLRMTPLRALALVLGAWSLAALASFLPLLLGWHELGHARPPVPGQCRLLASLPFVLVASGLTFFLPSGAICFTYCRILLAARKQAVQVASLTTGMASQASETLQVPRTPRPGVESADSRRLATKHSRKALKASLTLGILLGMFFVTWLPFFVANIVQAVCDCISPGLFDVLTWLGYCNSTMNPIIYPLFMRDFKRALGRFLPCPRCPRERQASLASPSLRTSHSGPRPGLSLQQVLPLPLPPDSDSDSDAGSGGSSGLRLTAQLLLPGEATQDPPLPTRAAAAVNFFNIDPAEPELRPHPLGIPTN
T2 sequence (P28223 whole entry): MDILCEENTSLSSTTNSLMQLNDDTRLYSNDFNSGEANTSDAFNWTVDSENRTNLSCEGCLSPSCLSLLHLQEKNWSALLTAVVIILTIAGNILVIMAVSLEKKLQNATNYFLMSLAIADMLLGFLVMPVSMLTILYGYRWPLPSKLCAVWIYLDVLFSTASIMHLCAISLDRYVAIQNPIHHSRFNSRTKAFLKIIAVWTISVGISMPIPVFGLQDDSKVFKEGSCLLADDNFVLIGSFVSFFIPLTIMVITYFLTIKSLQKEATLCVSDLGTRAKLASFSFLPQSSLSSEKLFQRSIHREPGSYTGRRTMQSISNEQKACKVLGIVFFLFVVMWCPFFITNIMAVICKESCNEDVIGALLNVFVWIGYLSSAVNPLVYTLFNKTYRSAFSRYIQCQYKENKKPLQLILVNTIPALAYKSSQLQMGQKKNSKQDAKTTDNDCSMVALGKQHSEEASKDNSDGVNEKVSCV

Structure (SMILES)	melting point	Ki [1]	Ki [2]
CNCC1CC(=O)c2ccc(S(=O)(=O)c3ccccc3)cc2O1 (centres unmarked) (as salt: TFA) [Compound 1, 7-Benzenesulfonyl-2-methylaminomethyl-chroman-4-one]	157.8 to 189.6 °C	–	–
CNCC1CCc2ccc(S(=O)(=O)c3ccccc3)cc2O1 (centres unmarked) (as salt: TFA) [Compound 3, (7-Benzenesulfonyl-chroman-2-ylmethyl)-methyl-amine]	196.2 to 198.2 °C	–	–
CNCC1CC(C)(O)c2ccc(S(=O)(=O)c3ccccc3)cc2O1 (centres unmarked) (as salt: trifluoroacetate) [Compound 4, 7-Benzenesulfonyl-4-methyl-2-methylaminomethyl-chroman-4-ol]	163.9 to 165.3 °C	–	–
C[C@H](O)C(=O)NC[C@H]1CCc2ccc(S(=O)(=O)c3ccccc3)cc2O1 (stereo in doubt) [Compound 30, (R)-N-(7-Benzenesulfonyl-chroman-2-ylmethyl)-2-hydroxy-propionamide]	129.5 to 131.5 °C	–	–
CNC[C@@H]1CCc2ccc(S(=O)(=O)c3ccccc3)cc2O1 [Compound 7, (S)-(7-Benzenesulfonyl-chroman-2-ylmethyl)-methyl-amine]	–	~0.1 nM	~56.2 nM
CNC[C@H]1CCc2ccc(S(=O)(=O)c3cccc(F)c3)cc2O1 [Compound 35, (R)-[7-(3-Fluoro-benzenesulfonyl)-chroman-2-ylmethyl]-methyl-amine]	259 to 261 °C	–	–
NC[C@H]1CCc2ccc(S(=O)(=O)c3cccc(F)c3)cc2O1 [Compound 46, (R)-C-[7-(3-Fluoro-benzenesulfonyl)-chroman-2-yl]-methylamine]	257.1 to 258.9 °C	–	–
